The values that follow come from patent US10888720B2, “Gentiopicroside free gentiana extract” (DSM IP ASSETS B.V., priority 2015, dated 2021).

One series relates to DNA. The note with it: K. Mustafayeva et al., J. Nat. Prod. 2010, 73, 99-103; cited from earlier work.
Series [1] relates to Normal human fibroblasts (NHF). As to the kind of experiment: Hyaluronan production (Hyaluronan Assay Kit). The series is classed as cell-based. The note with it: TGFbeta1 10 ng/ml, positive control. As to the method: Gentiana extract (Gentiana acaulis/Gentiana septemfida, 25/75 m/m) was used. Normal human fibroblasts (NHF) P2+1 were seeded at 5000 cell/well in 96 well cell culture plates (Nunclon) in MEM 10% FCS (Pan Biotech). After three days of growth, Gentiana extract solution was added in medium without FCS and incubated the cells for an additional three days. Secreted hyaluronan in the growth medium was measured using a Hyaluronan Assay Kit (K-1200, Echelon, Salt Lake City, Utah).

With `C=C[C@@H]1C2=CCOC(=O)C2=CO[C@H]1O[C@@H]1O[C@H](CO)[C@@H](O)[C@H](O)[C@H]1O` [gentiopicroside], the genotoxic effects reported result with DNA is “DNA damaging, mutagenic, and clastogenic effects”. Take “TGFbeta1: TGFbeta1 (10 ng/ml), served as positive control for hyaluronan production”: in series [1], the “stimulation of hyaluronan production compared to untreated cells” value is reported as 45.6±1.1%.
